Consider 20 molecules from US20260102507A1, “CAMPTOTHECIN DERIVATIVE FOR TREATING OR PREVENTING CANCER AND ANTIBODY-DRUG CONJUGATE THEREOF” (CHENGDU BRILLIANT PHARMACEUTICAL CO., LTD., priority 2023, published 2026).

Common to all, as to assay: Cytotoxicity assay of camptothecin derivative toxins (Example A)
Common to all, as to type: cell-based

The subject of assay [1] is human colon cancer cell line HCT116. The following applies: 3 days incubation, Cell Titer Turbo 2.0 luminescent cell viability. As for the experimental part:
(§1) Tumor cells (human ovarian cancer cell line SK-OV-3; human colon cancer cell line HCT116; human lung adenocarcinoma cell line A549) in logarithmic growth phase were digested and adjusted to a density of approximately 3×10^4 cells/mL. The cells were plated on a white-walled 96-well plate at approximately 100 μL/well. The camptothecin derivative toxins of the Examples of the present application were serially diluted with the corresponding cell culture medium, and then mixed with the cells for incubation at 37° C. in a 5% CO2 incubator for 3 days. The growth inhibitory effect of the camptothecin derivative toxins on tumor cells was assessed by the Cell Titer Turbo 2.0 Luminescent Cell Viability Assay (Damas life, RA-GL11). Relative light unit (RLU) values were read from the cell culture plate using a microplate reader. Experimental data were analyzed using GraphPad Prism 8.0 software to calculate IC50 values. The above experiment was repeated using the following compounds as positive controls: […]

Assay [2] relates to human lung adenocarcinoma cell line A549. The following applies: 3 days incubation, Cell Titer Turbo 2.0 luminescent cell viability. As for the experimental part:
as §1

For assay [3], the system named is human ovarian cancer cell line SK-OV-3. The conditions noted are these: for IC50: 3 days incubation, Cell Titer Turbo 2.0 luminescent cell viability; for tumor cell killing activity: in words, overall statement on Table 2 tumor cells, compared with SN-38 and Dxd. How it is done: as §1

For the molecule `CCCSCc1c2c(nc3cc(F)c(Br)cc13)-c1cc3c(c(=O)n1C2)COC(=O)[C@]3(O)CC` [STI-G2-06C, (S)-9-bromo-4-ethyl-8-fluoro-4-hydroxy-11-((propylthio)methyl)-1,12-dihydro-14H-pyrano[3′,4′:6,7]indolizino[1,2-b]quinoline-3,14(4H)-dione], the IC50 in assay [1] (Homo sapiens, HCT-116, 72 h) was found to be 81.3 nM; in assay [2] (Homo sapiens, A549, 72 h), 216 nM; in assay [3] (Homo sapiens, SK-OV-3, 72 h), 57.8 nM. The “tumor cell killing activity” value in assay [3] is “comparable to that of SN-38 and Dxd”.

For `CC[C@@]1(O)C(=O)OCc2c1cc1n(c2=O)Cc2c-1nc1cc(F)c(C)cc1c2NCCCCN` [STI-F7, (S)-11-((4-aminobutyl)amino)-4-ethyl-8-fluoro-4-hydroxy-9-methyl-1,12-dihydro-14H-pyrano[3′,4′:6,7]indolizino[1,2-b]quinoline-3,14(4H)-dione], the IC50 in assay [3] (Homo sapiens, SK-OV-3, 72 h) was found to be 285 nM.

As to `CCc1c2c(nc3ccc(O)cc13)-c1cc3c(c(=O)n1C2)COC(=O)[C@]3(O)CC` [SN-38, reference compound], the IC50 in assay [1] (Homo sapiens, HCT-116, 72 h) turned out to be 60.5 nM; in assay [2] (Homo sapiens, A549, 72 h) it was 523 nM; in assay [3] (Homo sapiens, SK-OV-3, 72 h) it was 30.9 nM.

For `CC[C@@]1(O)C(=O)OCc2c1cc1n(c2=O)Cc2c-1nc1cc(F)c(C)cc1c2N` [STI-F-03C-1, (S)-4-ethyl-4-hydroxy-8-fluoro-9-methyl-11-amino-1,12-dihydro-14H-pyrano[3′,4′:6,7]indolizino[1,2-b]quinoline-3,14(4H)-dione], the IC50 in assay [1] (Homo sapiens, HCT-116, 72 h) turned out to be 38.2 nM; in assay [2] (Homo sapiens, A549, 72 h), 1080 nM; in assay [3] (Homo sapiens, SK-OV-3, 72 h) it was 19.9 nM. Besides, in assay [3], the “tumor cell killing activity” value was “comparable to that of SN-38 and Dxd”.

Take `CC[C@@]1(O)C(=O)OCc2c1cc1n(c2=O)Cc2c-1nc1cc(F)c(C)cc1c2CCl` [STI-A-4, (S)-4-ethyl-4-hydroxy-8-fluoro-9-methyl-11-(chloromethyl)-1,12-dihydro-14H-pyrano[3′,4′:6,7]indolizino[1,2-b]quinoline-3,14(4H)-dione]: the IC50 worked out at 222 nM in assay [1] (Homo sapiens, HCT-116, 72 h); 757 nM in assay [2] (Homo sapiens, A549, 72 h); 71.8 nM in assay [3] (Homo sapiens, SK-OV-3, 72 h).

`CC[C@@]1(O)C(=O)OCc2c1cc1n(c2=O)Cc2c-1nc1cc(F)c(C)cc1c2NCCCCO` [STI-F6, (S)-4-ethyl-8-fluoro-4-hydroxy-9-methyl-11-((4-hydroxybutyl)amino)-1,12-dihydro-14H-pyrano[3′,4′:6,7]indolizino[1,2-b]quinoline-3,14(4H)-dione] showed an IC50 in assay [3] (Homo sapiens, SK-OV-3, 72 h) of 2.65 nM. In addition, the “tumor cell killing activity” value in assay [3] is “significantly superior to that of SN-38 and Dxd”.

With `CCCCCNc1c2c(nc3cc(F)c(C)cc13)-c1cc3c(c(=O)n1C2)COC(=O)[C@]3(O)CC` [STI-F13, (S)-4-ethyl-8-fluoro-4-hydroxy-9-methyl-11-(pentylamino)-1,12-dihydro-14H-pyrano[3′,4′:6,7]indolizino[1,2-b]quinoline-3,14(4H)-dione], 2.37 nM corresponded to half-maximal inhibition in assay [3] (Homo sapiens, SK-OV-3, 72 h) (IC50).

In turn, `CC[C@@]1(O)C(=O)OCc2c1cc1n(c2=O)Cc2c-1nc1cc(F)c(C)cc1c2NC(=O)C(O)C1CC1` (stereo partly drawn) [STI-F, 2-cyclopropyl-N—((S)-4-ethyl-8-fluoro-4-hydroxy-9-methyl-3,14-dioxo-3,4,12,14-tetrahydro-1H-pyrano[3′,4′:6,7]indolizino[1,2-b]quinolin-11-yl)-2-hydroxyacetamide] yielded an IC50 in assay [3] (Homo sapiens, SK-OV-3, 72 h) of 45.5 nM. Also, the “tumor cell killing activity” value in assay [3] is “comparable to that of SN-38 and Dxd”.

On to `CC[C@@]1(O)C(=O)OCc2c1cc1n(c2=O)Cc2c-1nc1cc(F)c(C)cc1c2CNCC1CCCC1` [STI-A2, (S)-4-ethyl-4-hydroxy-8-fluoro-9-methyl-11-(((cyclopentylmethyl)amino)methyl)-1,12-dihydro-14H-pyrano[3′,4′:6,7]indolizino[1,2-b]quinoline-3,14(4H)-dione], for which the IC50 in assay [1] (Homo sapiens, HCT-116, 72 h) worked out at 52.5 nM; in assay [2] (Homo sapiens, A549, 72 h), 107 nM; in assay [3] (Homo sapiens, SK-OV-3, 72 h), 30.8 nM. In assay [3], the “tumor cell killing activity” value is “comparable to that of SN-38 and Dxd”.

With `CC[C@@]1(O)C(=O)OCc2c1cc1n(c2=O)Cc2c-1nc1cc(F)c(C)c3c1c2[C@@H](NC(=O)CO)CC3` [DXD, Dxd, reference compound], the IC50 in assay [1] was 49.3 nM; in assay [2], 413 nM; in assay [3] it was 41.4 nM.

As for `CC[C@@]1(O)C(=O)OCc2c1cc1n(c2=O)Cc2cc3cc4c(cc3nc2-1)OCO4` [STI-E-05, (S)-7-ethyl-7-hydroxy-10,13-dihydro-11H-[1,3]dioxolo[4,5-g]pyrano[3′,4′:6,7]indolizino[1,2-b]quinoline-8,11(7H)-dione], the IC50 worked out at 32.9 nM in assay [1] (Homo sapiens, HCT-116, 72 h); 70.3 nM in assay [2] (Homo sapiens, A549, 72 h); 12.7 nM in assay [3] (Homo sapiens, SK-OV-3, 72 h). The “tumor cell killing activity” value in assay [3] is “comparable to that of SN-38 and Dxd”.

As to `CCCCCc1c2c(nc3cc(F)c(N)cc13)-c1cc3c(c(=O)n1C2)COC(=O)[C@]3(O)CC` [STI-G1, (S)-4-ethyl-4-hydroxy-8-fluoro-9-amino-11-pentyl-1,12-dihydro-14H-pyrano[3′,4′:6,7]indolizino[1,2-b]quinoline-3,14(4H)-dione], the IC50 in assay [1] (Homo sapiens, HCT-116, 72 h) came to 11 nM; in assay [2] (Homo sapiens, A549, 72 h) it was 9.52 nM; in assay [3] (Homo sapiens, SK-OV-3, 72 h), 3.7 nM. Moreover, in assay [3], the “tumor cell killing activity” value was “significantly superior to that of SN-38 and Dxd”.

In the case of `CC[C@@]1(O)C(=O)OCc2c1cc1n(c2=O)Cc2c-1nc1cc(F)c(C)cc1c2NC(=O)CO` [STI-F2, (S)—N-(4-ethyl-4-hydroxy-8-fluoro-9-methyl-3,14-dioxo-3,4,12,14-tetrahydro-1H-pyrano[3′,4′:6,7]indolizino[1,2-b]quinolin-11-yl)-2-hydroxyacetamide], the half-inhibitory concentration (IC50) came to 945 nM in assay [1] (Homo sapiens, HCT-116, 72 h); 2370 nM in assay [2] (Homo sapiens, A549, 72 h); 317 nM in assay [3] (Homo sapiens, SK-OV-3, 72 h).

Consider `CCCSCc1c2c(nc3cc(F)c(N)cc13)-c1cc3c(c(=O)n1C2)COC(=O)[C@]3(O)CC` [STI-G2, (S)-9-amino-4-ethyl-8-fluoro-4-hydroxy-11-((propylthio)methyl)-1,12-dihydro-14H-pyrano[3′,4′:6,7]indolizino[1,2-b]quinoline-3,14(4H)-dione], for which the IC50 was 11 nM in assay [1] (Homo sapiens, HCT-116, 72 h); 14.9 nM in assay [2] (Homo sapiens, A549, 72 h); 2.19 nM in assay [3] (Homo sapiens, SK-OV-3, 72 h). In assay [3], the “tumor cell killing activity” value is “significantly superior to that of SN-38 and Dxd”.

Take `CCCCCNc1c2c(nc3cc(F)c(C)cc13)-c1cc3c(c(=O)n1C2)COC(=O)[C@]3(O)CC` [STI-F-13]: the “tumor cell killing activity” value in assay [3] was “significantly superior to that of SN-38 and Dxd”.

Take `CC[C@@]1(O)C(=O)OCc2c1cc1n(c2=O)Cc2cc3cc(C)c(F)cc3nc2-1` [STI-F-8, (S)-4-ethyl-4-hydroxy-8-fluoro-9-methyl-1,12-dihydro-14H-pyrano[3′,4′:6,7]indolizino[1,2-b]quinoline-3,14(4H)-dione]: the IC50 in assay [1] (Homo sapiens, HCT-116, 72 h) is 26.6 nM; in assay [2] (Homo sapiens, A549, 72 h), 52.8 nM; in assay [3] (Homo sapiens, SK-OV-3, 72 h), 12.4 nM. Besides, the “tumor cell killing activity” value in assay [3] was “comparable to that of SN-38 and Dxd”.

With `CCCCCc1c2c(nc3cc(F)c([N+](=O)[O-])cc13)-c1cc3c(c(=O)n1C2)COC(=O)[C@]3(O)CC` [STI-G03, (S)-4-ethyl-4-hydroxy-8-fluoro-9-nitro-11-pentyl-1,12-dihydro-14H-pyrano[3′,4′:6,7]indolizino[1,2-b]quinoline-3,14(4H)-dione], the 50% inhibitory concentration (IC50) in assay [1] (Homo sapiens, HCT-116, 72 h) is 268 nM; in assay [2] (Homo sapiens, A549, 72 h) it was 322 nM; in assay [3] (Homo sapiens, SK-OV-3, 72 h), 137 nM.

Regarding `CC[C@@]1(O)C(=O)OCc2c1cc1n(c2=O)Cc2c-1nc1cc(F)c(C)cc1c2CNCC(C)(C)C` [STI-A, (S)-4-ethyl-4-hydroxy-8-fluoro-9-methyl-11-((neopentylamino)methyl)-1,12-dihydro-14H-pyrano[3′,4′:6,7]indolizino[1,2-b]quinoline-3,14(4H)-dione], the IC50 in assay [1] (Homo sapiens, HCT-116, 72 h) stood at 39.9 nM; in assay [2] (Homo sapiens, A549, 72 h), 115 nM; in assay [3] (Homo sapiens, SK-OV-3, 72 h), 29.3 nM. In addition, the “tumor cell killing activity” value in assay [3] was “comparable to that of SN-38 and Dxd”.

Consider `CC[C@@]1(O)C(=O)OCc2c1cc1n(c2=O)Cc2c-1nc1cc(F)c(C)cc1c2C(=O)O` [STI-F-01, (S)-4-ethyl-8-fluoro-4-hydroxy-9-methyl-3,14-dioxo-3,4,12,14-tetrahydro-1H-pyrano[3′,4′:6,7]indolizino[1,2-b]quinoline-11-carboxylic acid], for which the IC50 in assay [1] (Homo sapiens, HCT-116, 72 h) turned out to be 322 nM; in assay [2] (Homo sapiens, A549, 72 h), 1050 nM; in assay [3] (Homo sapiens, SK-OV-3, 72 h) it was 131 nM.

With `CC[C@@]1(O)C(=O)OCc2c1cc1n(c2=O)Cc2c-1nc1cc3c(cc1c2CCCCO)OCO3` [STI-E, (S)-7-ethyl-7-hydroxy-14-(4-hydroxybutyl)-10,13-dihydro-11H-[1,3]dioxolo[4,5-g]pyrano[3′,4′:6,7]indolizino[1,2-b]quinoline-8,11(7H)-dione], the IC50 in assay [1] (Homo sapiens, HCT-116, 72 h) was found to be 1740 nM; in assay [2] (Homo sapiens, A549, 72 h), 1060 nM; in assay [3] (Homo sapiens, SK-OV-3, 72 h), 403 nM.
